Calls of active or inactive are those of the source.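 How the source made its calls: active means signal falling with dose and AC50 at most twice the top valid tested dose; inconclusive means flat fit with inhibition of 30 to 70%, or poor fit; inactive means the rest, plus effects in the rising direction.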
Each compound was assayed against Kelch-like ECH-associated protein 1 (Homo sapiens) (UniProt Q14145) (assay: disruptors of Keap1 Kelch-Nrf2 peptide binding – biochemical, fluorescence polarization, dry powder, set 2, dose response (AID 651801)). Details: Keap1 Kelch/FITC-Nrf2 peptide fluorescence polarization.
Kelch-like ECH-associated protein 1 (Homo sapiens), sequence (Q14145 whole entry, looked up): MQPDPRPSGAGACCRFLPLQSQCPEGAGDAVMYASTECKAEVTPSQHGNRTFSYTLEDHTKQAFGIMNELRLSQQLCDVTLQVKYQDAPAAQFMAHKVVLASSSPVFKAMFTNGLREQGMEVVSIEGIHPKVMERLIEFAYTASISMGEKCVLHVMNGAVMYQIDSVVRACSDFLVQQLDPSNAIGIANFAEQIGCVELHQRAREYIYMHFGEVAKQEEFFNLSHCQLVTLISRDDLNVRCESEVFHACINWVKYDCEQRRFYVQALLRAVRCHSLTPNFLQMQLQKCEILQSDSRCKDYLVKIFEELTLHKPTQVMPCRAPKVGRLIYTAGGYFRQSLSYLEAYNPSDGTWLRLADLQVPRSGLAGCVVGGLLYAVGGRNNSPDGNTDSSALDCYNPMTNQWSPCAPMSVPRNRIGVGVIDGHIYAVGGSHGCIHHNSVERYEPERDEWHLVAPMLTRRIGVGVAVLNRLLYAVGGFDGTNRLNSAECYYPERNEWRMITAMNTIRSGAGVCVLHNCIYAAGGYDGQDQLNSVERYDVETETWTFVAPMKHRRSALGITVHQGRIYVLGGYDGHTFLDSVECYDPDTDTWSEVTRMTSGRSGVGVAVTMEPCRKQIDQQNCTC

| AC50 | Compound |
| --- | --- |
| 23.6 µM | O=C(O)C1CCCCC1C(=O)N1CCc2ccccc2C1CN1Cc2ccccc2C1=O (stereo not drawn) |
| > 100 µM (inactive) | O=C(O)C1CCCCC1C(=O)N1CCc2ccccc2C1CN1C(=O)Cc2ccccc2C1=O (stereo not drawn) |
| 2.43 µM | Cc1ccc(S(=O)(=O)Nc2cc(C(C(=O)OC(C)C)C(=O)C(F)(F)F)c(O)c3ccccc23)c(C)c1 (stereo not drawn) |
| > 100 µM (inactive) | O=C(O)C1CCCCC1C(=O)N1CCc2ccccc2C1CN1C(=O)[C@H]2CCCC[C@H]2C1=O (stereo partly drawn) |
| > 100 µM (inactive) | O=C(NCCc1ccccc1)c1ccccc1C(=O)NC[C@@H]1c2ccccc2CCN1C(=O)C1CCCCC1C(=O)O (stereo partly drawn) |
| > 100 µM (inactive) | O=C(O)[C@H]1CCCC[C@H]1C(=O)N1CCC2=C(CCCC2)C1CN1C(=O)c2ccccc2C1=O (stereo partly drawn) |
| > 100 µM (inactive) | O=C(O)[C@H]1C2C=CC(C2)[C@H]1C(=O)N1CCc2ccccc2C1CN1C(=O)c2ccccc2C1=O (stereo partly drawn) |
| 9.18 µM | CC(=O)Nc1cc(NS(=O)(=O)c2c(C)cc(C)cc2C)c2ccccc2c1O |
| 0.798 µM | Cc1cc(C)c(S(=O)(=O)Nc2cc(C(C(=O)OC(C)C)C(=O)C(F)(F)F)c(O)c3ccccc23)c(C)c1 (stereo not drawn) |
| > 100 µM (inactive) | O=C(NCCO)c1ccccc1C(=O)NC[C@@H]1c2ccccc2CCN1C(=O)C1CCCCC1C(=O)O (stereo partly drawn) |
| 30 µM | CC(C)OC(=O)C(C(=O)C(F)(F)F)c1cc(NS(=O)(=O)c2ccccc2)c2ccccc2c1O (stereo not drawn) |
| 3.56 µM | Cc1ccccc1S(=O)(=O)Nc1cc(C(C(=O)OC(C)C)C(=O)C(F)(F)F)c(O)c2ccccc12 (stereo not drawn) |
| 23.6 µM | O=C(O)Cc1ccccc1C(=O)N1CCc2ccccc2[C@H]1CN1C(=O)c2ccccc2C1=O |
| > 100 µM (inactive) | Cc1ccc(S(=O)(=O)NC(=O)[C@@H]2c3ccccc3CCN2C(=O)[C@@H]2CCCC[C@@H]2C(=O)O)cc1 |
| > 100 µM (inactive) | NC(=O)c1ccccc1C(=O)NC[C@@H]1c2ccccc2CCN1C(=O)[C@@H]1CCCC[C@@H]1C(=O)O |
| 7.4 µM | Cc1ccc(S(=O)(=O)Nc2cc(C(C(=O)OC(C)C)C(=O)C(F)(F)F)c(O)c3ccccc23)cc1 (stereo not drawn) |
| 39.5 µM | COC(=O)C(C(=O)OC)c1cc(NS(=O)(=O)c2c(C)cc(C)cc2C)c2ccccc2c1O |
| > 100 µM (inactive) | O=C(NC[C@@H]1c2ccccc2CCN1C(=O)[C@@H]1CCCC[C@@H]1C(=O)O)c1ccc(CN2CCOCC2)cc1 |

Same assay, conditions: Keap1 Kelch/FITC-Nrf2 peptide fluorescence polarization; at 12 µM (top of the series)

| activity change, negative = inhibition | Compound |
| --- | --- |
| inactive | O=C1c2ccccc2C(=O)N1CC1c2ccccc2CCN1C(=O)Cc1ccccc1 (stereo not drawn) |

Same assay, conditions: Keap1 Kelch/FITC-Nrf2 peptide fluorescence polarization; at 50 µM (top of the series)

| activity change, negative = inhibition | Compound |
| --- | --- |
| inactive | CCOC(=O)C(C(=O)OCC)c1cc(CNS(=O)(=O)c2ccc(C)cc2C)c2ccccc2n1 |
| inactive | O=C(O)[C@H]1CCCC[C@H]1C(=O)N1CCc2ccccc2[C@H]1CNS(=O)(=O)c1ccccc1 |
| inactive | O=C(O)C1CCCCC1C(=O)NCC1c2ccccc2CCN1C(=O)Cc1ccccc1 (stereo not drawn) |
| inactive | COC(=O)[C@H]1CCCC[C@H]1C(=O)N1CCc2ccccc2[C@H]1CN1C(=O)c2ccccc2C1=O |
| inactive | O=C(O)/C=C\C(=O)N1CCc2ccccc2C1CN1C(=O)c2ccccc2C1=O (stereo not drawn) |
| inactive | Cc1cc(C)c(S(=O)(=O)Nc2cc(C(C(=O)OCc3ccccc3)C(=O)OCc3ccccc3)c(O)c3ccccc23)c(C)c1 |
| inactive | Cc1cc(C)c(S(=O)(=O)Nc2nc(N(C)C)nc3ccccc23)c(C)c1 |
| inactive | O=C(O)C1CCCCC1C(=O)N1CCc2ccccc2C1c1ccccc1 (stereo not drawn) |
| inactive | C[C@H](NC(=O)C1CCCC[C@H]1C(=O)O)c1ccccc1 (mixture of isomers) |
| inactive | Cc1ccc(S(=O)(=O)NC[C@@H]2c3ccccc3CCN2C(=O)[C@@H]2CCCC[C@@H]2C(=O)O)c(C)c1 |
| inactive | O=C1c2ccccc2C(=O)N1C[C@H]1NCCc2ccccc21 |
| inactive | CCOC(=O)C(C(=O)OCC)c1cc(CN2C(=O)c3ccccc3C2=O)c2ccccc2n1 |
| inactive | O=C(O)C1CCCCC1C(=O)N1CCc2ccccc2[C@H]1C(=O)NC12CC3CC(CC(C3)C1)C2 (stereo partly drawn) |
| inactive | Cc1cc(C)c(S(=O)(=O)Nc2nc(NCCO)nc3ccccc23)c(C)c1 |
| inactive | O=C(O)[C@@H]1CCCN1C(=O)N1CCc2ccccc2[C@H]1CN1C(=O)c2ccccc2C1=O |
| inactive | O=C(O)[C@H]1CCCC[C@H]1C(=O)N1CCC2=C(CCCC2)C1CN1C(=O)c2ccccc2C1=O (stereo partly drawn) |
| inactive | COC(=O)[C@@H]1CCCC[C@@H]1C(=O)N1CCc2ccccc2[C@@H]1CN1C(=O)c2ccccc2C1=O |
| inactive | Cc1ccc(S(=O)(=O)NNc2nc(NCC(N)=O)nc3ccccc23)cc1 |
| inactive | CC(C)CNc1nc(NS(=O)(=O)c2ccccc2)c2ccccc2n1 |
| inactive | Cc1ccc(S(=O)(=O)NNc2nc(N3CC(O)CC3C(=O)O)nc3ccccc23)cc1 (stereo not drawn) |

| activity change, negative = inhibition | Compound |
| --- | --- |
| inactive | O=C(O)[C@H]1CCCC[C@H]1C(=O)N1CCc2ccccc2C1CCN1C(=O)c2ccccc2C1=O (stereo partly drawn) |
| inactive | O=C(O)C1CCCCC1C(=O)Nc1ccccc1CN1C(=O)c2ccccc2C1=O (stereo not drawn) |
| inactive | COC(=O)CNc1nc(NS(=O)(=O)c2c(C)cc(C)cc2C)c2ccccc2n1 |
| inactive | O=S(=O)(Nc1nc(NCC2CCCCC2)nc2ccccc12)c1ccccc1 |
| inactive | O=C(Oc1cc(CN2C(=O)c3ccccc3C2=O)c2ccccc2[n+]1[O-])c1cccc(Cl)c1 |
| inactive | Cc1ccc(S(=O)(=O)NC2=CC(=N[C@@H](C)C(=O)OC(C)(C)C)C(=O)c3ccccc32)c(C)c1 |
| inactive | CCOC(=O)C(C(=O)OCC)c1nc(NS(=O)(=O)c2c(C)cc(C)cc2C)c2ccccc2n1 |
| inactive | COc1ccc(CCN=C2C=C(NS(=O)(=O)c3c(C)cc(C)cc3C)c3ccccc3C2=O)cc1 |
| inactive | Cc1cc(C)c(S(=O)(=O)Nc2nc(C(C(=O)OC(C)C)C(=O)C(F)(F)F)nc3ccccc23)c(C)c1 (stereo not drawn) |
| inactive | NC(=O)[C@H]1CCCC[C@H]1C(=O)N1CCc2ccccc2[C@H]1CN1C(=O)c2ccccc2C1=O |
| inactive | O=C(O)[C@H]1CCCC[C@H]1C(=O)N1CCc2ccccc2C1 (racemic) |
| inactive | O=C(NC[C@@H]1c2ccccc2CCN1C(=O)[C@@H]1CCCC[C@@H]1C(=O)O)c1ccccc1CO |
| inactive | O=C(NC[C@@H]1c2ccccc2CCN1C(=O)[C@@H]1CCCC[C@@H]1C(=O)O)c1ccccc1 |
| inactive | COC(=O)C1CCCCC1C(=O)N1CCc2ccccc2C1CN1C(=O)c2ccccc2C1=O (stereo not drawn) |
| inactive | O=C(O)C1CCCCC1C(=O)N1CCCCC1CN1C(=O)c2ccccc2C1=O (stereo not drawn) |
| inactive | Cc1ccc(S(=O)(=O)NNc2nc(C(C(=O)OC(C)C)C(=O)C(F)(F)F)nc3ccccc23)cc1 (stereo not drawn) |
| inactive | O=C(NCCCN1CCOCC1)c1ccccc1C(=O)NC[C@@H]1c2ccccc2CCN1C(=O)C1CCCCC1C(=O)O (stereo partly drawn) |
| inactive | O=C(O)[C@H]1CCCC[C@H]1C(=O)NC(CN1C(=O)c2ccccc2C1=O)c1ccccc1 (stereo partly drawn) |
| inactive | O=C1c2ccccc2C(=O)N1CC1=NCCc2ccccc21 |
| inactive | O=C(O)c1ccccc1C(=O)N1CCc2ccccc2C1CN1C(=O)c2ccccc2C1=O (stereo not drawn) |

| activity change, negative = inhibition | Compound |
| --- | --- |
| inactive | CCOC(=O)Cc1nc(NS(=O)(=O)c2c(C)cc(C)cc2C)c2ccccc2n1 |
| inactive | O=C(O)c1ccccc1C(=O)NC[C@@H]1c2ccccc2CCN1C(=O)[C@@H]1CCCC[C@@H]1C(=O)O |
| inactive | O=C(Cc1ccccc1)NC[C@@H]1c2ccccc2CCN1C(=O)[C@@H]1CCCC[C@@H]1C(=O)O |
| inactive | O=C(O)CC(=O)N1CCc2ccccc2C1CN1C(=O)c2ccccc2C1=O (stereo not drawn) |
| inactive | C[C@@H](NC(=O)C1CCCC[C@H]1C(=O)O)c1ccccc1 (mixture of isomers) |
| inactive | Cc1ccc(S(=O)(=O)NC(=O)[C@@H]2c3ccccc3CCN2C(=O)[C@@H]2CCCC[C@@H]2C(=O)O)cc1 |
| inactive | COc1ccccc1CCNC(=O)[C@@H]1c2ccccc2CCN1C(=O)C1CCCCC1C(=O)O (stereo partly drawn) |
| inactive | O=C(O)CCC(=O)N1CCc2ccccc2C1CN1C(=O)c2ccccc2C1=O (stereo not drawn) |
| inactive | O=C(O)C1CCCCC1C(=O)N1CCc2ccccc2[C@H]1C(=O)NCCc1ccccc1 (stereo partly drawn) |
| inactive | COC(=O)[C@@H]1CCCC[C@@H]1C(=O)N1CCc2ccccc2[C@H]1CN1C(=O)c2ccccc2C1=O |
| inactive | O=C(O)[C@H]1CCCC[C@H]1C(=O)N1CCc2ccccc2[C@H]1CNc1nc(Cl)nc2ccccc12 |
| inactive | O=C1c2ccccc2C(=O)N1C[C@@H]1c2ccccc2CCN1C(=O)OCc1ccccc1 |
| inactive | O=C(O)[C@H]1CCCC[C@H]1C(=O)N1CCc2ccccc2[C@H]1CNS(=O)(=O)c1ccc([N+](=O)[O-])cc1 |
| inactive | O=C(O)CCCC(=O)N1CCc2ccccc2C1CN1C(=O)c2ccccc2C1=O (stereo not drawn) |
| inactive | O=C(NC[C@@H]1c2ccccc2CCN1C(=O)[C@@H]1CCCC[C@@H]1C(=O)O)OCC1c2ccccc2-c2ccccc21 |
| inactive | C=CC(=O)NC[C@@H]1c2ccccc2CCN1C(=O)[C@@H]1CCCC[C@@H]1C(=O)O |
| inactive | O=C1c2ccccc2C(=O)N1C[C@@H]1c2ccccc2CCN1C(=O)C1CCCCC1 |
| inactive | O=C(NC[C@@H]1c2ccccc2CCN1C(=O)[C@@H]1CCCC[C@@H]1C(=O)O)c1ccc(CCl)cc1 |
| inactive | Cc1cc(C)c(S(=O)(=O)Nc2ncnc3ccccc23)c(C)c1 |

From PubChem BioAssay AID651801 (Broad Institute, 2012)
